Results from PubChem BioAssay (NCI).
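Five compound concentrations were applied to cells in 96-well plates for 48 hours; endpoints were derived by simple linear interpolation of the resulting dose-response curve. GI50 = concentration required for 50% inhibition of growth. TGI marks complete inhibition of growth.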 *1 amine or outer side, *2 acyl side, *3 side chain or, on linkers, in order; H or OH if unused. Where a SMILES comes first, the peptide text is derived from it. [ ]: non-standard residue; d: D form. X38 = CSCCCC(N[*:1])C(=O)[*:2]

Columns and labels:
Experiment in all cases: NCI-60 cell line screen, 48 h
[1] = tested on: NCI-H23 lung
[2] = tested on: SK-MEL-2 melanoma
[3] = tested on: M14 melanoma
[4] = tested on: TK-10 renal
[5] = tested on: A498 renal
[6] = tested on: OVCAR-3 ovarian
[7] = tested on: NCI-H226 lung
[8] = tested on: HOP-92 NSCLC
[9] = tested on: COLO 205 colon
[10] = tested on: SK-OV-3 ovarian
[11] = tested on: MDA-MB-435
[12] = tested on: PC-3 prostate
[13] = tested on: U251 CNS
[14] = tested on: SW-620 colon
[15] = tested on: SNB-19 CNS
[16] = tested on: SK-MEL-5 melanoma
[17] = tested on: UACC-257 melanoma
[18] = tested on: OVCAR-5 ovarian
[19] = tested on: CCRF-CEM leukemia
[20] = tested on: BT-549 breast
[21] = tested on: A549 NSCLC
[22] = tested on: MCF7 breast
[23] = tested on: SF-295 CNS
[24] = tested on: KM12 colon
[25] = tested on: SR leukemia
[26] = tested on: NCI-H460 lung
[27] = tested on: RPMI-8226 leukemia
[28] = tested on: K-562 leukemia
[29] = tested on: HOP-62 NSCLC
[30] = tested on: IGROV1 ovarian
[31] = tested on: OVCAR-4 ovarian
[32] = tested on: MALME-3M melanoma
[33] = tested on: 786-0 renal
[34] = tested on: SN12C renal
[35] = tested on: SK-MEL-28 melanoma
[36] = tested on: HT29 colon
[37] = tested on: SNB-75 CNS
[38] = tested on: NCI-H522 lung
[39] = tested on: RXF 393 renal
[40] = tested on: LOX IMVI melanoma
[41] = tested on: HCT-15 colon
[42] = tested on: MOLT-4 leukemia
[43] = tested on: DU-145 prostate
[44] = tested on: ACHN renal
[45] = tested on: UO-31 renal
[46] = tested on: HCT-116 colon
[47] = tested on: MDA-MB-231 breast
[48] = tested on: T-47D breast
[49] = tested on: OVCAR-8 ovarian
[50] = tested on: SF-539 CNS
[51] = tested on: CAKI-1 renal
[52] = tested on: HCC-2998 colon
[53] = tested on: UACC-62 melanoma
[54] = tested on: EKVX NSCLC
[55] = tested on: NCI/ADR-RES ovarian
[56] = tested on: HL-60(TB) leukemia
[57] = tested on: SF-268 CNS

SMILES: Nc1ccn(C2CSC(CO)O2)c(=O)n1 (centres undefined)
- GI50 [1]: > 1000 µM
- TGI [1]: > 1000 µM

SMILES: C=C(CNCCc1ccc(O)cc1)[C@@H]1CC[C@]2(CO)CC[C@]3(C)[C@H](CC[C@@H]4[C@@]5(C)CCC(=O)C(C)(C)[C@@H]5CC[C@]43C)[C@@H]12
- GI50 [2]: 1.75 µM
- TGI [2]: 3.27 µM
- GI50 [3]: 1.72 µM
- TGI [3]: 3.24 µM
- GI50 [4]: 1.73 µM
- TGI [4]: 3.19 µM
- GI50 [5]: 1.38 µM
- TGI [5]: 2.77 µM
- GI50 [6]: 1.67 µM
- TGI [6]: 3.08 µM
- GI50 [7]: 1.62 µM
- TGI [7]: 3.64 µM
- GI50 [8]: 1.01 µM
- TGI [8]: 2.26 µM
- GI50 [9]: 1.73 µM
- TGI [9]: 3.32 µM
- GI50 [10]: 1.79 µM
- TGI [10]: 3.51 µM
- GI50 [11]: 1.74 µM
- TGI [11]: 3.22 µM
- GI50 [12]: 1.32 µM
- TGI [12]: 2.69 µM
- GI50 [13]: 1.56 µM
- TGI [13]: 2.92 µM
- GI50 [14]: 1.77 µM
- TGI [14]: 3.76 µM
- GI50 [15]: 1.62 µM
- TGI [15]: 3.02 µM
- GI50 [16]: 1.63 µM
- TGI [16]: 2.99 µM
- GI50 [17]: 1.78 µM
- TGI [17]: 3.26 µM
- GI50 [18]: 1.59 µM
- TGI [18]: 3 µM
- GI50 [19]: 1.92 µM
- TGI [19]: 5.26 µM
- GI50 [20]: 1.71 µM
- TGI [20]: 3.29 µM
- GI50 [21]: 1.63 µM
- TGI [21]: 2.99 µM
- GI50 [22]: 1.87 µM
- TGI [22]: 3.84 µM
- GI50 [23]: 1.74 µM
- TGI [23]: 3.22 µM
- GI50 [24]: 1.82 µM
- TGI [24]: 3.61 µM
- GI50 [25]: 1.3 µM
- TGI [25]: 4.17 µM
- GI50 [26]: 1.66 µM
- TGI [26]: 3.28 µM
- GI50 [27]: 1.79 µM
- TGI [27]: 4.45 µM
- GI50 [28]: 1.86 µM
- TGI [28]: 4.72 µM
- GI50 [29]: 1.58 µM
- TGI [29]: 3.11 µM
- GI50 [30]: 1.68 µM
- TGI [30]: 3.3 µM
- GI50 [31]: 1.65 µM
- TGI [31]: 3.12 µM
- GI50 [32]: 1.65 µM
- TGI [32]: 3.25 µM
- GI50 [33]: 1.6 µM
- TGI [33]: 2.95 µM
- GI50 [34]: 1.65 µM
- TGI [34]: 3.12 µM
- GI50 [35]: 1.7 µM
- TGI [35]: 3.14 µM
- GI50 [36]: 1.62 µM
- TGI [36]: 3.08 µM
- GI50 [37]: 1.37 µM
- TGI [37]: 2.74 µM
- GI50 [38]: 1.69 µM
- TGI [38]: 3.23 µM
- GI50 [39]: 1.28 µM
- TGI [39]: 2.59 µM
- GI50 [40]: 1.6 µM
- TGI [40]: 2.97 µM
- GI50 [41]: 1.47 µM
- TGI [41]: 2.89 µM
- GI50 [42]: 1.96 µM
- TGI [42]: 4.47 µM
- GI50 [43]: 1.77 µM
- TGI [43]: 3.15 µM
- GI50 [44]: 1.61 µM
- TGI [44]: 2.96 µM
- GI50 [45]: 1.3 µM
- TGI [45]: 2.58 µM
- GI50 [46]: 1.67 µM
- TGI [46]: 3.03 µM
- GI50 [47]: 1.76 µM
- TGI [47]: 3.2 µM
- GI50 [48]: 1.72 µM
- TGI [48]: 4 µM
- GI50 [49]: 1.73 µM
- TGI [49]: 3.16 µM
- GI50 [50]: 1.75 µM
- TGI [50]: 3.17 µM
- GI50 [51]: 1.57 µM
- TGI [51]: 2.96 µM
- GI50 [52]: 1.64 µM
- TGI [52]: 3.06 µM
- GI50 [53]: 1.69 µM
- TGI [53]: 3.09 µM
- GI50 [1]: 1.69 µM
- TGI [1]: 3.26 µM
- GI50 [54]: 1.7 µM
- TGI [54]: 3.24 µM

SMILES: CSCCCC(NC(=O)CNC(=O)C1CCCN1C(=O)C(Cc1ccc(O)cc1)NC(=O)C(Cc1ccccc1)NC(=O)C(CCCN=C(N)N)NC(=O)C(CC(=O)O)NC(=O)C1CCCN1C(=O)C(CC(=O)O)NC(=O)C1CCCN1C(=O)C1CCCN1C(=O)CN)C(N)=O (centres undefined) (H-GPPDPDRFYPG[X38]-NH2; configuration not given here)
- TGI [7]: > 50 µM
- TGI [8]: > 50 µM
- TGI [17]: > 50 µM
- TGI [20]: > 50 µM
- TGI [1]: > 50 µM

SMILES: COc1cc(NN=C(c2ccc(O)cc2)c2ccc(O)cc2)c([N+](=O)[O-])cc1[N+](=O)[O-]
- GI50 [2]: 14.2 µM
- TGI [2]: 30.5 µM
- GI50 [3]: 11.4 µM
- TGI [3]: 24.7 µM
- GI50 [4]: 4.69 µM
- TGI [4]: 19.9 µM
- GI50 [5]: 13.2 µM
- TGI [5]: 35.2 µM
- GI50 [6]: 1.21 µM
- TGI [6]: 14.8 µM
- GI50 [7]: 23.6 µM
- TGI [7]: 71.6 µM
- GI50 [8]: 12.1 µM
- TGI [8]: 31.6 µM
- GI50 [9]: 11.2 µM
- TGI [9]: 23.2 µM
- GI50 [10]: 16.6 µM
- TGI [10]: 30.2 µM
- GI50 [11]: 10.4 µM
- TGI [11]: 22.6 µM
- GI50 [12]: 14.6 µM
- TGI [12]: > 100 µM
- GI50 [13]: 7.79 µM
- TGI [13]: 20.6 µM
- GI50 [14]: 15.2 µM
- TGI [14]: 33.6 µM
- GI50 [15]: 10.7 µM
- TGI [15]: 23.3 µM
- GI50 [16]: 6.24 µM
- TGI [16]: 20.6 µM
- GI50 [17]: 15.5 µM
- TGI [17]: 29.3 µM
- GI50 [18]: 18.8 µM
- TGI [18]: 40.1 µM
- GI50 [55]: 13.1 µM
- TGI [55]: 51.5 µM
- GI50 [19]: 1.37 µM
- TGI [19]: > 100 µM
- GI50 [20]: 14 µM
- TGI [20]: 30.2 µM
- GI50 [21]: 7.59 µM
- TGI [21]: 33.7 µM
- GI50 [22]: 5.71 µM
- TGI [22]: 21.9 µM
- GI50 [23]: 1.73 µM
- TGI [23]: 16.5 µM
- GI50 [24]: 4.86 µM
- TGI [24]: 25.7 µM
- GI50 [25]: 10.9 µM
- TGI [25]: > 100 µM
- GI50 [26]: 3.76 µM
- TGI [26]: 21.2 µM
- GI50 [27]: 1.5 µM
- TGI [27]: > 100 µM
- GI50 [28]: 3.92 µM
- TGI [28]: > 100 µM
- GI50 [29]: 5.29 µM
- TGI [29]: 20.3 µM
- GI50 [30]: 12.7 µM
- TGI [30]: 32.8 µM
- GI50 [31]: 12.2 µM
- TGI [31]: 27 µM
- GI50 [32]: 17.2 µM
- TGI [32]: 31.6 µM
- GI50 [33]: 11.7 µM
- TGI [33]: 24.8 µM
- GI50 [34]: 11.2 µM
- TGI [34]: 23.3 µM
- GI50 [35]: 15.3 µM
- TGI [35]: 33.9 µM
- GI50 [36]: 10.9 µM
- TGI [36]: 25.6 µM
- GI50 [37]: 14.7 µM
- TGI [37]: 29.6 µM
- GI50 [38]: 8.86 µM
- TGI [38]: 29.9 µM
- GI50 [39]: 8.05 µM
- TGI [39]: 22.9 µM
- GI50 [40]: 3.76 µM
- TGI [40]: 18.6 µM
- GI50 [41]: 5.75 µM
- TGI [41]: 20.1 µM
- GI50 [42]: 6.52 µM
- TGI [42]: > 100 µM
- GI50 [43]: 12.8 µM
- TGI [43]: 50.8 µM
- GI50 [44]: 5.23 µM
- TGI [44]: 20.3 µM
- GI50 [45]: 10.4 µM
- TGI [45]: 23.9 µM
- GI50 [46]: 9.33 µM
- TGI [46]: 21.8 µM
- GI50 [47]: 11.4 µM
- TGI [47]: 25.5 µM
- GI50 [48]: 1.62 µM
- TGI [48]: 19.2 µM
- GI50 [56]: 22 µM
- TGI [56]: > 100 µM
- GI50 [49]: 4.91 µM
- TGI [49]: 27.5 µM
- GI50 [50]: 13 µM
- TGI [50]: 27.7 µM
- GI50 [51]: 13.8 µM
- TGI [51]: 26.7 µM
- GI50 [52]: 14.8 µM
- TGI [52]: 29.8 µM
- GI50 [53]: 10.6 µM
- TGI [53]: 22.6 µM
- GI50 [1]: 13.5 µM
- TGI [1]: 34.5 µM
- GI50 [54]: 14.4 µM
- TGI [54]: 28.3 µM
- GI50 [57]: 6.64 µM
- TGI [57]: 25.5 µM
